Measured values from patent US10905691B2, “Use of triazolo(4,5-d)pyrimidine derivatives for prevention and treatment of bacterial infection” (Universite de Liege, priority 2016, dated 2021).

Tests used:
[1] = test system: E. faecalis VRE (ATCC BAA-2365); assay: Killing curve (CFU counting); assay type: cell-based, Enterococcus faecalis; details: Triafluocyl 20 μg/ml; Minocycline 10 μg/ml; FIG. 8C
Method: E. faecalis VRE (ATCC BAA-2365) was grown overnight in brain heart infusion (BHI) medium, diluted 1:100 in fresh BHI, and incubated aerobically at 37° C. until bacteria growth reached a logarithmic phase (OD600=0.2-0.25).
Triafluocyl (Cayman Chemical, Item No. 15425) (20 μg/ml), Minocycline (Sigma, 10 μg/ml) or vehicle (DMSO) was then added in 5 ml of bacteria suspensions. Bacterial growth was measured after different time intervals by counting the colony-forming units after plating appropriate culture dilutions on BHI agar plates.

S. epidermidis [2] = assay: Growth of low-density inoculum (OD600, 4 hr); assay type: cell-based, Staphylococcus epidermidis; details: inoculum 0.08×10^6 CFU/ml
Source text: Moreover, we have tested the effect of Triafluocyl on a low-density inoculum, 0.08×10^6 CFU/ml, from a culture of S. epidermidis in logarithmic phase.

S. aureus (ATCC 25904) = assay: Growth kinetics in logarithmic phase (OD600 and viable count); assay type: cell-based, Staphylococcus aureus; details: 20-100 min, FIG. 1
Method: S. aureus (American Type Culture Collection, ATCC 25904) was grown overnight in Tryptic Soy Broth (TSB) medium, diluted 1:100 in fresh TSB, and incubated aerobically at 37° C. until bacteria growth reached a logarithmic phase (OD600=0.25-0.3).
Increasing concentrations of Triafluocyl (Cayman Chemical, Item No. 15425) or vehicle (DMSO) was then added in 5 ml of bacteria suspensions. Bacterial growth was measured after different time intervals (20-100 min) by spectrophotometry (OD600) and by counting the colony-forming units after plating appropriate culture dilutions on TS agar plates.
In FIG. 1 kinetics of S. aureus growth in the presence of an increasing concentrations (1 μg/ml to 20 μg/ml) of Triafluocyl were measured by turbidity measurement (upper graph), and viable count (lower graph). Data represent medians±range (n=3). *p<0.05; **p<0.01, ***p<0.001, Triafluocyl vs vehicle.

S. epidermidis [3] = assay: Time-kill study in logarithmic phase; assay type: cell-based, Staphylococcus epidermidis
Method: To evaluate Triafluocyl antibacterial effect we have tested S. epidermidis liquid growth in the presence of different Triafluocyl concentrations in logarithmic phase. […] A 1:100 inoculum in 50 ml TSB of an O/N culture of S. epidermidis was cultured for 3 hr up to its logarithmic phase (OD600=0.26 and ≈3×10^8 CFU/ml). Bacteria were split in several tubes containing different concentrations of DMSO as vehicle alone or in combination with Triafluocyl in TSB and grown for 100 min at 37° C. with 220 rpm shaking, the OD600 was measured every 20 min.

CCCSc1nc(N[C@@H]2C[C@H]2c2ccc(F)c(F)c2)c2nnn([C@@H]3C[C@H](OCCO)[C@@H](O)[C@H]3O)c2n1 [Triafluocyl, (1S,2S,3R,5S)-3-[7-[(1R,2S)-2-(3,4-difluorophenyl)cyclopropylamino]-5-(propylthio)-3H-[1,2,3]-triazolo[4,5-d]pyrimidin-3-yl]-5-(2-hydroxyethoxy)-1,2-cyclopentanediol]
antibacterial effect on E. faecalis VRE (killing curve) [1]: bactericidal effect
decrease of OD600 compared to growth in absence of Triafluocyl (S. epidermidis [2]; 5 μg/ml): 50%
growth (OD600) of low-density inoculum (S. epidermidis [2]; 10 μg/ml): inhibited growth
growth (OD600) of low-density inoculum (S. epidermidis [2]; 20 μg/ml): inhibited growth
effect on bacterial growth (turbidity and viable count) (S. aureus (ATCC 25904); 10 μg/ml): able to inhibit bacterial growth
effect on bacterial growth (turbidity and viable count) (S. aureus (ATCC 25904); 20 μg/ml): potent bactericidal effect
S. epidermidis growth (OD600) (S. epidermidis [3]; 50 μg/ml): slight bacteriostatic activity
number of viable cells (S. epidermidis [3]; 50 μg/ml, at 80 min): 3×10^8 CFU/ml
S. epidermidis growth (OD600) (S. epidermidis [3]; between 10 μg/ml and 20 μg/ml, compared to DMSO (0.25%), 100 min): dose-dependent inhibition
